In patent US20240398781A1, “SPIROCYCLIC CYCLIC MODULATORS OF CHOLESTEROL BIOSYNTHESIS AND THEIR USE FOR PROMOTING REMYELINATION” (GENENTECH, INC., priority 2021, published 2024):
Like-named read-outs stand apart in the source and are kept apart here.

Legend:
[1] = biological target: human emopamil binding protein and human 7-dehydrocholesterol reductase co-expressing cells (hEBP-DHCR7 membrane) (Homo sapiens (Human), UniProt Q15125); assay: Radioligand filter binding assay on hEBP-DHCR7 membrane; details: [3H]-(S)-6-(2-Methyl-3-(6-(trifluoromethyl)pyridin-3-yl)propyl)-2-thia-6-azaspiro[3.4]octane 2,2-dioxide radioligand, HEK293 membrane co-expressing hEBP and hDHCR7
Sequence of human emopamil binding protein and human 7-dehydrocholesterol reductase co-expressing cells (hEBP-DHCR7 membrane) (Q15125 whole entry): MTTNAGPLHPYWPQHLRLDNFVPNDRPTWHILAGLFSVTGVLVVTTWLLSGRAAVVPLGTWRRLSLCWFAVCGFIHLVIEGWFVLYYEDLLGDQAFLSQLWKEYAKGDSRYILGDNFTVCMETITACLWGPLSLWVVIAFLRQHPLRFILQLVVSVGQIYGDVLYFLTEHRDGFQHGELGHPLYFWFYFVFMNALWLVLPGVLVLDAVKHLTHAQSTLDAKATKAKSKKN
Summary of the method: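 HEK293 cells transiently co-expressing human EBP and DHCR7 supplied whole-cell membranes (10 μg/well), incubated 3 h at 22 °C with [3H]-labelled spiro-octane dioxide ligand (added at 25 nM) and compound (0.06-5000 nM final, 8 doses, n=2). Bound ligand was collected on PEI-treated GF/B filters and counted by scintillation. IC50 was Hill-fitted from % inhibition and reported as Ki.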

[2] = test system: EBP (zymostenol accumulation in EpiSC-derived OPCs); assay: GC/MS-based sterol profiling, zymostenol accumulation in OPCs; type: cell-based, mouse; details: read-out: Zymostenol GCMS EC50
Summary of the method: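 EpiSC-derived OPCs (100,000/well) were treated 24 h in N2B27 without growth factors. Sterols were TMS-derivatized and analysed by GC/MS full-scan EI, quantified against cholesterol-d7. Zymostenol was normalized to the level after 24 h with 100 nM positive control reference.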

[3] = Mus musculus, 24 h, EpiSC-derived OPCs, 24 hr treatment, 8 doses from 0.15 nM to 333 nM

| SMILES | Ki [1] | EC50 [2, 3] | EC50 ([2]; EpiSC-derived OPCs, 24 hr treatment, 8 doses from 0.15 nM to 333 nM) | EC50 ([2]; Mus musculus, 24 h) |
| --- | --- | --- | --- | --- |
| O=S1(=O)CC2(CCN([C@H]3CC[C@H](c4ccc(C(F)(F)F)cc4)CC3)C2)C1 [Compound 3A, 6-((1r,4r)-4-(4-(trifluoromethyl)phenyl)cyclohexyl)-2-thia-6-azaspiro[3.4]octane 2,2-dioxide] | 15.8 nM | 2.1 nM | – | – |
| O=S1(=O)CC2(CCN([C@@H]3CCCN(c4ccc(C(F)(F)F)cc4)C3)C2)C1 (single isomer, unassigned) [22A*] | 14 nM | 2 nM | – | – |
| Cn1nc(C(F)(F)F)cc1[C@H]1CC[C@@H](N2CCC3(CC2)CS(=O)(=O)C3)CC1 [Compound 25A, 7-((1s,4s)-4-(1-Methyl-3-(trifluoromethyl)-1H-pyrazol-5-yl)cyclohexyl)-2-thia-7-azaspiro[3.5]nonane 2,2-dioxide] | 450 nM | 43 nM | – | – |
| O=S1(=O)CC2(CCN([C@H]3CC[C@@H](c4ccc(C(F)(F)F)nc4)C3)C2)C1 (single isomer, unassigned) [Compound 11A, (Cis)-6-(3-(6-(Trifluoromethyl)pyridin-3-yl)cyclopentyl)-2-thia-6-azaspiro[3.4]octane 2,2-dioxide] | 37.8 nM | 30 nM | – | – |
| O=S1(=O)CC2(CCN([C@H]3CO[C@H](c4ccc(C(F)(F)F)cc4)C3)C2)C1 (stereo in doubt) [19D*, 6-((3R,5S)-5-(4-(trifluoromethyl)phenyl)tetrahydrofuran-3-yl)-2-thia-6-azaspiro[3.4]octane 2,2-dioxide] | 33 nM | 110 nM | – | – |
| CC(C)n1nc(C(F)(F)F)cc1[C@H]1CC[C@@H](N2CCC3(C2)CS(=O)(=O)C3)C1 (single isomer, unassigned) [10B*] | 21.3 nM | 2.9 nM | – | – |
| Cn1nc(C(F)(F)F)cc1[C@H]1CC[C@H](N2CC[C@@]3(CCS(=O)(=O)C3)C2)CC1 (single isomer, unassigned) [27A*] | 260 nM | 26 nM | – | – |
| O=S1(=O)CC2(CCN(C3CCN(c4ccc(C(F)(F)F)cn4)CC3)C2)C1 [Compound 6, 6-(1-(5-(trifluoromethyl)pyridin-2-yl)piperidin-4-yl)-2-thia-6-azaspiro[3.4]octane 2,2-dioxide] | 23 nM | 14 nM | – | – |
| O=S1(=O)CC2(CCN([C@H]3CC[C@H](c4cc(C(F)(F)F)nn4C4CC4)CC3)CC2)C1 [Compound 40B, 7-((1s,4s)-4-(1-cyclopropyl-3-(trifluoromethyl)-1H-pyrazol-5-yl)cyclohexyl)-2-thia-7-azaspiro[3.5]nonane 2,2-dioxide] | 183 nM | 17 nM | – | – |
| O=S1(=O)CC2(CCN([C@@H]3CC[C@@H](c4ccc(C(F)(F)F)nc4)C3)C2)C1 (single isomer, unassigned) [Compound 11B, (Trans)-6-(3-(6-(Trifluoromethyl)pyridin-3-yl)cyclopentyl)-2-thia-6-azaspiro[3.4]octane 2,2-dioxide] | 35.9 nM | 7.3 nM | – | – |
| CC(C)n1cc(C(F)(F)F)nc1[C@@H]1CC[C@H](N2CCC3(C2)CS(=O)(=O)C3)C1 (single isomer, unassigned) [20D*] | 39 nM | 38 nM | – | – |
| CC(C)n1cc(C(F)(F)F)nc1[C@H]1CC[C@@H](N2CCC3(C2)CS(=O)(=O)C3)C1 (single isomer, unassigned) [20C*] | 420 nM | 310 nM | – | – |
| CC(C)n1nc(-c2ccc(C(F)(F)F)nc2)nc1[C@H]1CC[C@@H](N2CCC3(C2)CS(=O)(=O)C3)C1 (single isomer, unassigned) [17D*] | 64 nM | 3.5 nM | – | – |
| O=S1(=O)CC2(CCN(C3CCN(c4ccc(C(F)(F)F)cc4)CC3)C2)C1 [Compound 4, 6-(1-(4-(trifluoromethyl)phenyl)piperidin-4-yl)-2-thia-6-azaspiro[3.4]octane 2,2-dioxide] | 51.8 nM | 2.5 nM | – | – |
| Cc1cc(C(F)(F)F)cnc1[C@H]1CC[C@H](N2CCC3(C2)CS(=O)(=O)C3)CC1 [Compound 47B, 6-((1r,4r)-4-(3-methyl-5-(trifluoromethyl)pyridin-2-yl)cyclohexyl)-2-thia-6-azaspiro[3.4]octane 2,2-dioxide] | 23 nM | 4.1 nM | – | – |
| Cn1nc(C(F)(F)F)cc1[C@H]1CC[C@H](N2CC[C@]3(CCS(=O)(=O)C3)C2)CC1 (single isomer, unassigned) [38C*] | 260 nM | – | 20 nM | – |
| CC(C)n1nc(C2CC2)nc1[C@@H]1CC[C@@H](N2CCC3(C2)CS(=O)(=O)C3)C1 (single isomer, unassigned) [18C*] | 811 nM | 54 nM | – | – |

| SMILES | Ki [1] | EC50 [2, 3] | EC50 ([2]; EpiSC-derived OPCs, 24 hr treatment, 8 doses from 0.15 nM to 333 nM) | EC50 ([2]; Mus musculus, 24 h) |
| --- | --- | --- | --- | --- |
| Cn1nc(C(F)(F)F)cc1[C@H]1CC[C@@H](N2CC[C@@]3(CCS(=O)(=O)C3)C2)CC1 (single isomer, unassigned) [38B*] | 50 nM | 60 nM | – | – |
| CC(C)n1nc(-c2cncc(C(F)(F)F)c2)cc1[C@@H]1CC[C@H](N2CCC3(C2)CS(=O)(=O)C3)C1 (single isomer, unassigned) [13B*] | 15 nM | 0.9 nM | – | – |
| CC(C)n1nc(-c2cncc(OC(F)F)c2)cc1[C@H]1CC[C@H](N2CCC3(C2)CS(=O)(=O)C3)CC1 [Compound 33A, 6-((1r,4r)-4-(3-(5-(Difluoromethoxy)pyridin-3-yl)-1-isopropyl-1H-pyrazol-5-yl)cyclohexyl)-2-thia-6-azaspiro[3.4]octane 2,2-dioxide] | 34 nM | 7.6 nM | – | – |
| Cc1cc(F)cnc1N1CCC(N2CCC3(C2)CS(=O)(=O)C3)CC1 [Compound 31, 6-(1-(5-fluoro-3-methylpyridin-2-yl)piperidin-4-yl)-2-thia-6-azaspiro[3.4]octane 2,2-dioxide] | 84 nM | 32 nM | – | – |
| O=S1(=O)CC2(CCN([C@H]3CO[C@@H](c4ccc(C(F)(F)F)cc4)C3)C2)C1 (stereo in doubt) [19A*, 6-((3R,5R)-5-(4-(Trifluoromethyl)phenyl)tetrahydrofuran-3-yl)-2-thia-6-azaspiro[3.4]octane 2,2-dioxide] | 21 nM | 23 nM | – | – |
| Cc1cc(C(F)(F)F)cnc1N1CCC(N2CCC3(C2)CS(=O)(=O)C3)CC1 [Compound 7, 6-(1-(3-methyl-5-(trifluoromethyl)pyridin-2-yl)piperidin-4-yl)-2-thia-6-azaspiro[3.4]octane 2,2-dioxide] | 17.5 nM | 34 nM | – | – |
| O=S1(=O)CC2(CCN(C3CCN(c4ccc(C(F)(F)F)nc4)CC3)C2)C1 [Compound 5, 6-(1-(6-(trifluoromethyl)pyridin-3-yl)piperidin-4-yl)-2-thia-6-azaspiro[3.4]octane 2,2-dioxide] | 148 nM | 50 nM | – | – |
| O=S1(=O)CC2(CCN([C@@H]3CC[C@@H](c4ccc(C(F)(F)F)cc4)C3)C2)C1 [Compound 1B, 6-((1R,3R)-3-(4-(trifluoromethyl)phenyl)cyclopentyl)-2-thia-6-azaspiro[3.4]octane 2,2-dioxide] | 26.8 nM | 2.6 nM | – | – |
| CCn1nc([C@H]2CC[C@H](N3CCC4(C3)CS(=O)(=O)C4)CC2)cc1C(F)(F)F [Compound 16, 6-((1r,4r)-4-(1-Ethyl-5-(trifluoromethyl)-1H-pyrazol-3-yl)cyclohexyl)-2-thia-6-azaspiro[3.4]octane 2,2-dioxide] | 52 nM | 12 nM | – | – |
| CC(C)n1nc(-c2cncc(C(F)(F)F)c2)cc1[C@@H]1CC[C@@H](N2CCC3(C2)CS(=O)(=O)C3)C1 (single isomer, unassigned) [13C*] | 23.5 nM | 4.1 nM | – | – |
| CC(C)n1nc(C(F)(F)F)cc1[C@H]1CC[C@H](N2CCC3(C2)CS(=O)(=O)C3)C1 (single isomer, unassigned) [10A*] | 18.7 nM | 2.8 nM | – | – |
| CC(C)n1cc(C(F)(F)F)nc1[C@@H]1CC[C@@H](N2CCC3(C2)CS(=O)(=O)C3)C1 (single isomer, unassigned) [20B*] | 130 nM | – | – | 19 nM |
| CC(C)n1nc(-c2ccc(C(F)(F)F)nc2)nc1[C@H]1CC[C@H](N2CCC3(C2)CS(=O)(=O)C3)C1 (single isomer, unassigned) [17B*] | 36 nM | 4 nM | – | – |
| CC(C)n1cc(C(F)(F)F)nc1[C@H]1CC[C@H](N2CCC3(C2)CS(=O)(=O)C3)C1 (single isomer, unassigned) [20A*] | 530 nM | 240 nM | – | – |
| CC(C)n1nc(C(F)(F)F)cc1[C@H]1CC[C@@H](N2CCC3(C2)CS(=O)(=O)C3)CC1 [Compound 8B, 6-((1s,4s)-4-(1-isopropyl-3-(trifluoromethyl)-1H-pyrazol-5-yl)cyclohexyl)-2-thia-6-azaspiro[3.4]octane 2,2-dioxide] | 32.9 nM | 26 nM | – | – |
| CCn1nc(-c2ccc(C(F)(F)F)nc2)nc1[C@H]1CC[C@H](N2CCC3(C2)CS(=O)(=O)C3)CC1 [36A*, 6-((1r,4r)-4-(1-Ethyl-3-(6-(trifluoromethyl)pyridin-3-yl)-1H-1,2,4-triazol-5-yl)cyclohexyl)-2-thia-6-azaspiro[3.4]octane 2,2-dioxide] | 61 nM | 8.6 nM | – | – |
| CC(C)n1nc(N2CC(F)(F)C2)cc1[C@H]1CC[C@H](N2CCC3(C2)CS(=O)(=O)C3)CC1 [Compound 35, 6-((1r,4r)-4-(3-(3,3-Difluoroazetidin-1-yl)-1-isopropyl-1H-pyrazol-5-yl)cyclohexyl)-2-thia-6-azaspiro[3.4]octane 2,2-dioxide] | 280 nM | 45 nM | – | – |
